The IC50 is the point on the concentration scale where inhibition reaches its midpoint. Low readings indicate greater potency in that assay, high ones weaker potency in that assay.

The values that follow come from patent US12084420B2, “Indoline compounds for inhibiting KIF18A” (Volastra Therapeutics, Inc., priority 2021, dated 2024).

One experiment deals with hKIF18A (1-374) (Homo sapiens (Human), UniProt Q8NI77). Description: Inhibition of KIF18A microtubule-dependent ATPase activity (ADP-Glo).
Chain of hKIF18A (1-374) (Q8NI77 whole entry, looked up): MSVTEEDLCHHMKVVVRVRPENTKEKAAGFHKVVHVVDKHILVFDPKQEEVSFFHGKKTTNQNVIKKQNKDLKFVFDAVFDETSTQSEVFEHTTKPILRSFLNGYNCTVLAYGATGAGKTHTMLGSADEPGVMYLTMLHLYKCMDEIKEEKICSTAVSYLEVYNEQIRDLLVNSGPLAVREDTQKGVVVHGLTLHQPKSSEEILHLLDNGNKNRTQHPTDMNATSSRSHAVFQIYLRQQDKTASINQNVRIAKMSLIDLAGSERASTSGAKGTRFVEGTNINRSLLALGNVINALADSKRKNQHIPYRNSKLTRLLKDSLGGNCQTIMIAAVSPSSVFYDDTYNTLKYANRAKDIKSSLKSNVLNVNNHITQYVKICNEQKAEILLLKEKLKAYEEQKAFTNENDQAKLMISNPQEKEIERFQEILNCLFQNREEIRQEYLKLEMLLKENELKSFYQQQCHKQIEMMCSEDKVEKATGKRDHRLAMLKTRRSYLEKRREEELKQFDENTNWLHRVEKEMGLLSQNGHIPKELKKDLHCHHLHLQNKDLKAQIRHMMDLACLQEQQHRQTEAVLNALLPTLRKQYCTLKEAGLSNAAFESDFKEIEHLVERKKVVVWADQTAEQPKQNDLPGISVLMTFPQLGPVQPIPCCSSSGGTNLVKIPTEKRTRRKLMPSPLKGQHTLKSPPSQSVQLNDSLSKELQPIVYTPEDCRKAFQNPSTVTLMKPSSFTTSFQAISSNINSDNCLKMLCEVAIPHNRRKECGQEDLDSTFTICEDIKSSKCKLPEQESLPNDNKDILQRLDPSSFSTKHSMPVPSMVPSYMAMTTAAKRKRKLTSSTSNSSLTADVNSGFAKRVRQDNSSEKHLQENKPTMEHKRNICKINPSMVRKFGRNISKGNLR
Chain of hKIF18A (1-374) (Q2XVP4 whole entry partner, looked up): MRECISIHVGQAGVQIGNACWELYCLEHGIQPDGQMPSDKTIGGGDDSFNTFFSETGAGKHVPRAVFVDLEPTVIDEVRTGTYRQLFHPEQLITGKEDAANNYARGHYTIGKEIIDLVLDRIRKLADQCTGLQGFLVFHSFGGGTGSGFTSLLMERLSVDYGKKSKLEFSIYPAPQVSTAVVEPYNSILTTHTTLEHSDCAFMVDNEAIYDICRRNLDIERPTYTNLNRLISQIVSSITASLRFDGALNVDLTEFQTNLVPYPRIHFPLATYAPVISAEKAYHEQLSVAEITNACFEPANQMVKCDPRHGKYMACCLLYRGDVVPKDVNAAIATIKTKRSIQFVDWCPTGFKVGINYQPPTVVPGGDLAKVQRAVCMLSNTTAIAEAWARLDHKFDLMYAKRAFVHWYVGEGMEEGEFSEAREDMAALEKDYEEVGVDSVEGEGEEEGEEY
Chain of hKIF18A (1-374) (P02554 whole entry partner, looked up): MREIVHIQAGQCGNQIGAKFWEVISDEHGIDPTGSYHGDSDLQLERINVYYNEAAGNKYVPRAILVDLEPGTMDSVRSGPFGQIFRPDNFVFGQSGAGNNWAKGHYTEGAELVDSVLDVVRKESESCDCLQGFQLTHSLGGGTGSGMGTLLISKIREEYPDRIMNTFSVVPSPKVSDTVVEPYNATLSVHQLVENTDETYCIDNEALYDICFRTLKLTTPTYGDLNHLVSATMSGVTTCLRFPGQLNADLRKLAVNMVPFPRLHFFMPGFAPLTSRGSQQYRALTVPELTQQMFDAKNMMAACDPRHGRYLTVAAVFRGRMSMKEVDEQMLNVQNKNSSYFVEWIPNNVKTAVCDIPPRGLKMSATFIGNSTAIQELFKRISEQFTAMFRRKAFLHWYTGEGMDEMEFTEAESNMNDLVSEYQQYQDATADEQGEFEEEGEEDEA
Details: not given
On the technique in general: In ADP-Glo the light output rises with the ADP produced.
Regarding `CS(=O)(=O)Nc1ccc2c(c1)C1(CCC3(CC3)CC1)CN2C(=O)c1cccc(S(=O)(=O)NC2CC(F)C2)c1` (centres unmarked) [Compound 204, N-(3-fluorocyclobutyl)-3-(5″- (methylsulfonamido)dispiro [cyclopropane-1,1′-cyclohexane-4′,3″- indoline]-1″-carbonyl)benzenesulfonamide], inhibition was half-maximal at 13 nM (IC50).
For `COC1CC(NS(=O)(=O)c2cccc(C(=O)N3CC4(CCC5(CC5)CC4)c4cc(NS(C)(=O)=O)ccc43)c2)C1` (centres unmarked) [Compound 222, N-(3-methoxycyclobutyl)-3-(5″- (methylsulfonamido)dispiro[cyclopropane-1,1′-cyclohexane-4′,3″-indoline]-1″-carbonyl)benzenesulfonamide], the IC50 is 100 nM.

The same experiment, now with this note: KIF18A microtubule-dependent ATPase activity, biochemical assay.
Take `CC1(NS(=O)(=O)c2cccc(C(=O)N3CC4(CCC5(CC5)CC4)c4cc(NS(C)(=O)=O)ccc43)c2)CCOC1` (centres unmarked) [Compound 178, 3-(5″- (methylsulfonamido)dispiro[cyclopropane-1,1′-cyclohexane-4′,3″-indoline]-1″-carbonyl)-N-(3-methyltetrahydrofuran-3-yl)benzenesulfonamide]: the IC50 was 17 nM.
`CS(=O)(=O)Nc1ccc2c(c1)C1(CCC3(CC3)CC1)CN2C(=O)c1cccc(S(=O)(=O)NC2CCCCC2)c1` [Compound 180, N-cyclohexyl-3-(5″- (methylsulfonamido)dispiro[cyclopropane-1,1′-cyclohexane-4′,3″-indoline]-1″-carbonyl)benzenesulfonamide] registered an IC50 of 11 nM.
The compound `CC(NS(=O)(=O)c1cccc(C(=O)N2CC3(CCC4(CC4)CC3)c3cc(NS(C)(=O)=O)ccc32)c1)C1CCC1` (centres unmarked) [Compound 184, N-(1-cyclobutylethyl)-3-(5″- (methylsulfonamido)dispiro[cyclopropane-1,1′-cyclohexane-4′,3″-indoline]-1″-carbonyl)benzenesulfonamide] had an IC50 of 33 nM.
In turn, `CC(NS(=O)(=O)c1cccc(C(=O)N2CC3(CCC4(CC4)CC3)c3cc(NS(C)(=O)=O)ccc32)c1)C1CC1` (centres unmarked) [Compound 186, N-(1-cyclopropylethyl)-3-(5″- (methylsulfonamido)dispiro[cyclopropane-1,1′-cyclohexane-4′,3″-indoline]-1″-carbonyl)benzenesulfonamide] gave an IC50 of 12 nM.
On the same count and under the same terms, the same measure for `CC1(C)OCC1NS(=O)(=O)c1cccc(C(=O)N2CC3(CCC4(CC4)CC3)c3cc(NS(C)(=O)=O)ccc32)c1` (centres unmarked) [Compound 188, N-(2,2-dimethyloxetan-3-yl)-3-(5″- (methylsulfonamido)dispiro[cyclopropane-1,1′-cyclohexane-4′,3″-indoline]-1″-carbonyl)benzenesulfonamide]: 75 nM; for `C=C1CC(NS(=O)(=O)c2cccc(C(=O)N3CC4(CCC5(CC5)CC4)c4cc(NS(C)(=O)=O)ccc43)c2)C1` [Compound 190, N-(3-methylenecyclobutyl)-3-(5″- (methylsulfonamido)dispiro[cyclopropane-1,1′-cyclohexane-4′,3″-indoline]-1″-carbonyl)benzenesulfonamide]: 4.8 nM.
Still for that read-out and setting: the same measure for `CS(=O)(=O)Nc1ccc2c(c1)C1(CCC3(CC3)CC1)CN2C(=O)c1cccc(S(=O)(=O)NC2C=CCCC2)c1` (centres unmarked) [Compound 196, N-(cyclohex-2-en-1-yl)-3-(5″- (methylsulfonamido)dispiro[cyclopropane-1,1′-cyclohexane-4′,3″-indoline]-1″-carbonyl)benzenesulfonamide]: 10 nM; for `CCC(CC)NS(=O)(=O)c1cccc(C(=O)N2CC3(CCC4(CC4)CC3)c3cc(NS(C)(=O)=O)ccc32)c1` [Compound 198, 3-(5″- (methylsulfonamido)dispiro[cyclopropane-1,1′-cyclohexane-4′,3″-indoline]-1″-carbonyl)-N-(pentan-3-yl)benzenesulfonamide]: 26 nM.
In turn, `COCC(C)NS(=O)(=O)c1cccc(C(=O)N2CC3(CCC4(CC4)CC3)c3cc(NS(C)(=O)=O)ccc32)c1` (centres unmarked) [Compound 200, N-(1-methoxypropan-2-yl)-3-(5″- (methylsulfonamido)dispiro[cyclopropane-1,1′-cyclohexane-4′,3″-indoline]-1″-carbonyl)benzenesulfonamide] registered an IC50 of 72 nM.
As to `CS(=O)(=O)Nc1ccc2c(c1)C1(CCC3(CC3)CC1)CN2C(=O)c1cccc(S(=O)(=O)NC2(CO)CC2)c1` [Compound 202, N-(1-(hydroxymethyl)cyclopropyl)-3-(5″- (methylsulfonamido)dispiro[cyclopropane-1,1′-cyclohexane-4′,3″-indoline]-1″-carbonyl)benzenesulfonamide], the IC50 is 53 nM.
As to `CC1(NS(=O)(=O)c2cccc(C(=O)N3CC4(CCC5(CC5)CC4)c4cc(NS(C)(=O)=O)ccc43)c2)COC1` [Compound 206, N-(3-methyloxetan-3-yl)-3-(5″- (methylsulfonamido)dispiro[cyclopropane-1,1′-cyclohexane-4′,3″-indoline]-1″-carbonyl)benzenesulfonamide], the IC50 is 27 nM.
In the case of `CCC(CO)NS(=O)(=O)c1cccc(C(=O)N2CC3(CCC4(CC4)CC3)c3cc(NS(C)(=O)=O)ccc32)c1` (centres unmarked) [Compound 208, N-(1-hydroxybutan-2-yl)-3-(5″- (methylsulfonamido)dispiro[cyclopropane-1,1′-cyclohexane-4′,3″-indoline]-1″-carbonyl)benzenesulfonamide], the midpoint of inhibition, the IC50, lay at 64 nM.
Same read-out and setting: the figure for `CC(C)C(C)NS(=O)(=O)c1cccc(C(=O)N2CC3(CCC4(CC4)CC3)c3cc(NS(C)(=O)=O)ccc32)c1` (centres unmarked) [Compound 210, N-(3-methylbutan-2-yl)-3-(5″- (methylsulfonamido)dispiro[cyclopropane-1,1′-cyclohexane-4′,3″-indoline]-1″-carbonyl)benzenesulfonamide] is 16 nM.
The compound `CS(=O)(=O)Nc1ccc2c(c1)C1(CCC3(CC3)CC1)CN2C(=O)c1cccc(S(=O)(=O)NC2CC2)c1` [Compound 212, N-cyclopropyl-3-(5″- (methylsulfonamido)dispiro[cyclopropane-1,1′-cyclohexane-4′,3″-indoline]-1″-carbonyl)benzenesulfonamide] registered an IC50 of 12 nM.
`CS(=O)(=O)Nc1ccc2c(c1)C1(CCC3(CC3)CC1)CN2C(=O)c1cccc(S(=O)(=O)NC(CO)C2CC2)c1` (centres unmarked) [Compound 214, N-(1-cyclopropyl-2-hydroxyethyl)-3-(5″- (methylsulfonamido)dispiro[cyclopropane-1,1′-cyclohexane-4′,3″-indoline]-1″-carbonyl)benzenesulfonamide]: the IC50 stood at 80 nM.
Still for that read-out and setting: the figure for `CC1(NS(=O)(=O)c2cccc(C(=O)N3CC4(CCC5(CC5)CC4)c4cc(NS(C)(=O)=O)ccc43)c2)CC1` [Compound 216, N-(1-methylcyclopropyl)-3-(5″- (methylsulfonamido)dispiro[cyclopropane-1,1′-cyclohexane-4′,3″-indoline]-1″-carbonyl)benzenesulfonamide] is 9.3 nM.
For `CS(=O)(=O)Nc1ccc2c(c1)C1(CCC3(CC3)CC1)CN2C(=O)c1cccc(S(=O)(=O)NC2CC(O)C2)c1` (centres unmarked) [Compound 218, N-(3-hydroxycyclobutyl)-3-(5″- (methylsulfonamido)dispiro[cyclopropane-1,1′-cyclohexane-4′,3″-indoline]-1″-carbonyl)benzenesulfonamide], the IC50 came to 100 nM.
On to `CC(C)(CO)NS(=O)(=O)c1cccc(C(=O)N2CC3(CCC4(CC4)CC3)c3cc(NS(C)(=O)=O)ccc32)c1` [Compound 220, N-(1-hydroxy-2-methylpropan-2-yl)-3-(5″- (methylsulfonamido)dispiro[cyclopropane-1,1′-cyclohexane-4′,3″-indoline]-1″-carbonyl)benzenesulfonamide], for which the IC50 came out at 25 nM.
For the compound `CC1(NS(=O)(=O)c2cccc(C(=O)N3CC4(CCC5(CC5)CC4)c4cc(NS(C)(=O)=O)ccc43)c2)CC(F)(F)C1` [Compound 224, N-(3,3-difluoro-1-methylcyclobutyl)-3-(5″- (methylsulfonamido)dispiro[cyclopropane-1,1′-cyclohexane-4′,3″-indoline]-1″-carbonyl)benzenesulfonamide], half-maximal inhibition (IC50) required 23 nM.
Turning to `CS(=O)(=O)Nc1ccc2c(c1)C1(CCC3(CC3)CC1)CN2C(=O)c1cccc(S(=O)(=O)NC2CC23CC3)c1` (centres unmarked) [Compound 225, 3-(5″-(methylsulfonamido)dispiro [cyclopropane-1,1′-cyclohexane-4′,3″- indoline]-1″-carbonyl)-N-(spiro[2.2]pentan-1-yl)benzenesulfonamide], the midpoint of inhibition, the IC50, lay at 7.5 nM.
Compound `CC1(NS(=O)(=O)c2cccc(C(=O)N3CC4(CCC5(CC5)CC4)c4cc(NS(C)(=O)=O)ccc43)c2)CSC1` [Compound 226, 3-(5″- (methylsulfonamido)dispiro[cyclopropane-1,1′-cyclohexane-4′,3″-indoline]-1″-carbonyl)-N-(3-methylthietan-3-yl)benzenesulfonamide] showed an IC50 of 13 nM.
Regarding `O=C(c1cccc(S(=O)(=O)NC2CCC2)c1)N1CC2(CCC3(CC3)CC2)c2cc(NS(=O)(=O)CCO)ccc21` [Compound 227, N-cyclobutyl-3-(5″-((2-hydroxyethyl)sulfonamido)dispiro[cyclopropane-1,1′-cyclohexane-4′,3″- indoline]-1″- carbonyl)benzenesulfonamide], the IC50 came out at 7.2 nM.
`O=C(c1cccc(S(=O)(=O)N2CC3(CCC3)C2)c1)N1CC2(CCC3(CC3)CC2)c2cc(NS(=O)(=O)CCO)ccc21` [Compound 228, N-(1″-(3-((2-azaspiro[3.3]heptan-2-yl)sulfonyl)benzoyl)dispiro[cyclopropane-1,1′-cyclohexane-4′,3″-indolin]-5″- yl)-2-hydroxyethane-1-sulfonamide] gave an IC50 of 4.6 nM.
Same read-out and setting: the same measure for `O=C(c1cccc(S(=O)(=O)NC2CC(F)(F)C2)c1)N1CC2(CCC3(CC3)CC2)c2cc(NS(=O)(=O)CCO)ccc21` [Compound 230, N-(3,3-difluorocyclobutyl)-3-(5″-((2-hydroxyethyl)sulfonamido)dispiro [cyclopropane-1,1′-cyclohexane-4′,3″- indoline]-1″- carbonyl)benzenesulfonamide]: 14 nM.
